These results are taken from patent US20240376165A1, “COMPOSITION COMPRISING VGLL1 PEPTIDE FOR TREATMENT OF CANCER” (ONECUREGEN CO., LTD., priority 2020, published 2024).

Assay [1] relates to MMP9. In words: MMP9 protein expression induced by TGF-β, western blot, peptide treatment. Type of assay: cell-based, human. As to conditions: NUGC3, TGF-β and peptide for 18 hours, FIG. 8. The procedure:
To evaluate whether the peptide fragment that interferes the binding between VGLL1 and TEAD4 can inhibit MMP9 expression in human stomach cancer cells, peptides shown in Table 6 were prepared to examine their effects on MMP9 expression.
Experiments were performed using the synthetic peptide fragments. The stomach cancer NUGC3 cells were cultured in a 6-well plate. The next day, cells were cultured in serum-free cell culture for 24 hours. TGF-β and a control peptide fragment (SEQ ID NO: 12), a peptide fragment containing serine at position 84 of VGLL1 (SEQ ID NO: 27), and a mutant peptide fragment containing alanine at position 84 of VGLL1 (SEQ ID NO: 28) were treated into cells for 18 hours. Proteins were extracted from the cells using a Ripa buffer and were separated by electrophoresis. Thereafter, protein expression of genes was confirmed by using an antibody on the polyvinylidene fluoride membrane.
(In general: Immunoblotting shows a protein as a band on a membrane.)

In assay [2] the test system is stomach cancer cell line NUGC3. In words: Cancer cell proliferation, real-time cell analysis (IncuCyte Zoom). The format is cell-based, human. As to conditions: FIG. 9. The procedure: Specifically, the stomach cancer cell line NUGC3 was cultured in a 96-well plate. The next day, the cells were treated with the peptide fragment. The cell proliferation was analyzed using a real-time cell analysis system (product name: IncuCyte Zoom).

For assay [3], the system named is stomach cancer cell line NUGC3. Kind of assay: Cancer cell invasion with peptide fragment. The format is cell-based, human. To be noted: NUGC3, insert, 48 hours, FIG. 10. On the procedure: Next, in order to confirm the cell invasive ability of MMP9, a cell culture insert was fixed in a 24-well plate. Matrigel was diluted 20-fold, and 100 μl of diluent was added. The reaction was carried out at 37° C. for 1 hour or longer. 700 μl of medium containing 10% serum was added to a 24-well plate under the insert. MMP knockdown cells with the above siRNA were added to the insert according to 300 μl of serum-free medium to a concentration of 5×10^5. After 48 hours, the insert was removed and cells were fixed in 10% formalin solution. Cells remaining inside the insert were removed with a cotton swab and washed with water. Cells were stained with 0.4% Sulforhodamine B solution for 1 hour, washed with acetic acid, and dried. Then, a photograph was taken with an optical microscope, the membrane on the insert was cut, and Sulforhodamine B in stained cells was dissolved in 10 mM Tris solution, and absorbance was measured at 540 nm using an ELISA plate reader (FIG. 2C).
A method similar to Example 1-2 was performed for stomach cancer cell invasion experiment by the VGLL1 peptide fragment.
The stomach cancer cell line NUGC3 was placed in an insert together with the peptide fragment. After 48 hours of cell culture, the insert was fixed in a 10% formalin solution, and the downwardly migrated cells were confirmed by staining with 0.4% Sulforhodamine B solution.

The test system of assay [4] is stomach cancer cell line NUGC3. Kind of assay: Cancer cell proliferation with peptide variants, real-time cell analysis (Incucyte). To be noted: NUGC3, 60 μM peptide, FIG. 11. Type of assay: cell-based, human. On the procedure:
The stomach cancer cell line NUGC3 was cultured in a 96-well plate, and the next day, the cells were treated with 60 μM peptide. The cell proliferation was analyzed using a real-time cell analysis system (product name: Incucyte).
FIG. 11A is a graph of real-time cell proliferation, and FIG. 11B is a graph showing cell proliferation after 4 days based on 100% control peptide.

For assay [5], the system named is stomach cancer cells. In words: Proliferation of various cancer cells: stomach cancer. The format is cell-based. To be noted: 60 μM peptide; NUGC3, AG5, NCI-N87, SNU484, MKN1; FIG. 12. On the procedure:
(§1) In order to confirm the various cancer cell proliferation inhibitory effects of the variant of S84 VGLL1 peptide fragment, the VGLL1 S84 peptide sequence represented by SEQ ID NO: 27 was treated into various cancer cell lines.
(§2) Specifically, the cancer cells of Table 8 were cultured in a 96-well plate and treated with 60 μM peptide on the next day, and cell proliferation was analyzed using a real-time cell analysis system (product name: IncuCyte Zoom).

The subject of assay [6] is colorectal cancer cells. Kind of assay: Proliferation of various cancer cells: colorectal cancer. To be noted: 60 μM peptide; SW620, HCT116, WiDr; FIG. 12. Type of assay: cell-based. On the procedure:
as §1, §2

In assay [7] the test system is lung cancer cells. Kind of assay: Proliferation of various cancer cells: lung cancer. The format is cell-based. As to conditions: 60 μM peptide; A549, H1650, H1299; FIG. 12. The procedure:
as §1, §2

The subject of assay [8] is liver cancer cells. Kind of assay: Proliferation of various cancer cells: liver cancer. The format is cell-based. To be noted: 60 μM peptide; HepG2, SNU354; FIG. 12. On the procedure: as §1, §2
Assay [9] deals with prostate cancer cells. In words: Proliferation of various cancer cells: prostate cancer. As to conditions: 60 μM peptide; FIG. 12. Type of assay: cell-based. On the procedure:
as §1, §2

Assay [10] relates to breast cancer cells. In words: Proliferation of various cancer cells: breast cancer. To be noted: 60 μM peptide; MCF7, SKBR3; FIG. 12. Type of assay: cell-based. On the procedure:
as §1, §2

For assay [11], the system named is cervical cancer cells. In words: Proliferation of various cancer cells: cervical cancer. The format is cell-based. As to conditions: 60 μM peptide; Hela; FIG. 12. On the procedure:
as §1, §2

Assay [12] deals with ovarian cancer cells. Kind of assay: Proliferation of various cancer cells: ovarian cancer. Type of assay: cell-based. As to conditions: 60 μM peptide; SK-OV3; FIG. 12. The procedure:
as §1, §2

For the sequence “YGRKKRRQRRRPNQWRYSSPWTKPQP [VGLL1 (S84)]”, the “increased MMP9 expression by TGF-β” value in assay [1] is on record as “reduced”. The “inhibition of cancer cell proliferation” value in [2] is given as “exhibited an effect of inhibiting cancer cell proliferation”; in assay [4] it was “excellent effect in inhibiting cancer cell proliferation”. Further, in assay [3], the “inhibition of cancer cell invasion” value is recorded as “exhibited an effect of inhibiting cancer cell invasion”. In [5], the “inhibition of proliferation of stomach cancer cells” value is “excellent effect in inhibiting the proliferation”. Besides, in [6], the “inhibition of proliferation of colorectal cancer cells” value is recorded as “excellent effect in inhibiting the proliferation”. Moreover, the “inhibition of proliferation of lung cancer cells” value in assay [7] is recorded as “excellent effect in inhibiting the proliferation”. Further, in [8], the “inhibition of proliferation of liver cancer cells” value is recorded as “excellent effect in inhibiting the proliferation”. Further, the “inhibition of proliferation of prostate cancer cells” value in [9] is listed as “excellent effect in inhibiting the proliferation”. Besides, the “inhibition of proliferation of breast cancer cells” value in assay [10] is “excellent effect in inhibiting the proliferation”. For the same sequence, in assay [11], the “inhibition of proliferation of cervical cancer cells” value is listed as “excellent effect in inhibiting the proliferation”. Further, in assay [12], the “inhibition of proliferation of ovarian cancer cells” value is “excellent effect in inhibiting the proliferation”.
